Results: patent US8815565B2, “Method for culturing mycoplasma contamination-free cells and method for removing mycoplasma contamination of cells” (Cellsafe Co., Ltd., priority 2010, dated 2014)
Values after ≈ are worked out from the molar mass of the structure shown.

Experiments:
[1] = tested on: Mycoplasma hyorhinis (ATCC 17981) inoculated on HepG2 cell line; experiment: Preventive activity against mycoplasma contamination during cell culturing; type: cell-based; settings: 20 μg/ml AM3 and 20 μM surfactin, 1×10^3 cfu Mycoplasma hyorhinis
Description: A cell line HepG2, which was not contaminated with mycoplasma, was inoculated at a concentration of 1×10^5 cells on DMEM (GIBCO BRL, Cat. No. 12800-058) including 10% or less serum (GIBCO BRL, Cat. No. 10082-147). The cell line was treated with 20 μg/ml of amphidinol 3 (AM3) and 20 μM of surfactin, followed by inoculation of 1×10^3 cfu (colony formin unit) of Mycoplasma hyorhinis (ATCC 17981). The cell line was cultured in an incubator at a temperature of 37° C. and in a condition of 5% CO2 for 3 days. Sub-culturing was performed twice per week. The cells were harvested every week and then PCR was performed thereon with a mycoplasma diagnosis kit (Promokine, Germany; Cellsafe Co., Ltd., Korea) according to the enclosed protocol. The resulting PCR products were electrophoresed on a 1% agarose gel to measure the mycoplasma contamination.

[2] = tested on: Mycoplasma hyorhinis (ATCC17981s); experiment: Inhibition of Mycoplasma hyorhinis cultured in PPLO medium, INT colour change; type: cell-based; settings: Mycoplasma, read-out: concentration showing excellent inhibitory activity against mycoplasma
Description: In order to evaluate the effects of the extract and amphidinol derivatives prepared in Example 1 on mycoplasma, Mycoplasma hyorhinis (ATCC17981s) was cultured in a PPLO medium (pleuropneumonia-like organism basal medium, Difco Laboratories, Detroit, USA) supplemented with a fetal calf serum and a yeast extract, according to the method disclosed by Hayflick (Hayflick, 1965, Tex. Rep. Bio. Med. 23, 285-303). That is, 100 μl of the medium was placed on each well of a 96-well plate, and a sample (that is, the extract and amphidinol derivatives prepared in Example 1) was added to each well, such that each sample was diluted from 2 times (i.e., 2× diluted) to 12 times (i.e., 12× diluted), the starting concentration being 1 mg/ml. Mycoplasma was cultured in a PPLO medium (pleuropneumonia-like organism basal medium, Difco Laboratories, Detroit, USA) supplemented with a fetal calf serum and a yeast extract, at a temperature of 37° C. for 48 hours. The resulting culture medium was diluted with the PPLO medium at a ratio of 1:10. 100 μl of the diluted culture medium was added to each well of the 96-well plate, so that the total amount of each well was 200 μl. After culturing at a temperature of 37° C. for 24 hours, 40 μl of 0.2 mg/ml INT (p-iodonitrotetrazolium) was added thereto and culturing was further performed for 4 hours. If the medium turns pink following the culturing, the color change means that metabolism of mycoplasma actively occurs. Also, if mycoplasma is suppressed by the sample, the medium turned pink less.

## C=C/C=C/CC/C=C/C=C/C=C/CC/C=C/C(O)C(O)C1OC(C(O)C(O)C(=C)CCC(O)C2CC(O)C(O)C(C(O)C(O)/C=C(\C)CCC(O)CC(O)C(O)C(C)CC(O)C(O)CCCCCC(O)CCCC(O)/C=C/CC(O)/C=C/CC(O)CO)O2)CC(O)C1O (centres unmarked) [AM3, amphidinol 3]
[1]
  mycoplasma contamination after artificial inoculation: stably cultured without mycoplasma contamination
[2]
  IC50: ~0.25 µg/mL (≈ 0.188 µM)
